Experimental data published in patent publication US9738634B2, “Heterocyclic amide compound and herbicide” (SYNGENTA PARTICIPATIONS AG, priority 2013, dated 2017).

Legend:
Type in all cases: in vivo
green foxtail = test: Test Example 3: weedkilling efficacy through soil treatment; E: green foxtail; conditions: soil treatment, treatment dosage 315 g/ha
From the text: (§1) Weedkilling Efficacy Test Through Soil Treatment
(§2) Sterilized diluvial soil was introduced into 21 cm long, 13 cm wide, 7 cm deep plastic boxes, and seeds of crabgrass, green foxtail, barnyard grass, wild oat, black-grass, Italian ryegrass, common wind-grass, Indian mallow, redroot pigweed, fig-leafed goosefoot, chickweed, catchweed, birds-eye speedwell, corn, soybean, rice, wheat, beet and rapeseed were each spot-sown, and covered with about 1.5 cm of soil. Next, emulsions of compounds of the present invention prepared according to compounding example 2 were diluted with water to give the specified dosages, and applied uniformly onto the soil surface with a small sprayer. The plants were grown by placing the plastic boxes in a greenhouse at 25 to 30° C., and 3 weeks after the pesticide treatment the effect on each type of plant was investigated on the basis of the assessment criteria of test example 1.
(§3) A: barnyard grass, B: bulrush, C: oval-leafed pondweed, D: crabgrass, E: green foxtail, F: barnyard grass, G: wild oat, H: black-grass, I: Italian ryegrass, J: common wind-grass, K: Indian mallow, L: redroot pigweed, M: fig-leafed goosefoot, N: chickweed, O: catchweed, p: birds-eye speedwell, a: transplanted rice, b: directly sown rice, c: corn, d: soybean, e: wheat, f: beet, g: rapeseed
(§4) Further, pesticide dosage (g/ha) indicates the concentration regulated such that treatment was with only the stated number of grams (g), when calculated per hectare (ha).

oval-leafed pondweed [1] = test: Test Example 1: weedkilling efficacy, preemergent weed treatment in the submerged state; C: oval-leafed pondweed; conditions: treatment dosage 252 g/ha
In short: (§5)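 Visual scores against set criteria were taken 3 weeks after treatment. Compounds, as diluted emulsions at specified g/ha, went onto the water surface of 4 cm-flooded alluvial soil pots on the day weeds were sown and 2.5-leaf rice was transplanted; greenhouse held 25–30 °C.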

beet = test: Test Example 3: soil treatment, effect on crop; f: beet; conditions: soil treatment, treatment dosage 315 g/ha
From the text: as §1, §2, §3, §4

wheat = test: Test Example 3: soil treatment, effect on crop; e: wheat; conditions: soil treatment, treatment dosage 315 g/ha
From the text: as §1, §2, §3, §4

transplanted rice = test: Test Example 1: preemergent weed treatment in the submerged state, effect on crop; a: transplanted rice; conditions: treatment dosage 252 g/ha
In short: as §5

Italian ryegrass = test: Test Example 3: weedkilling efficacy through soil treatment; I: Italian ryegrass; conditions: soil treatment, treatment dosage 315 g/ha
From the text: as §1, §2, §3, §4

soybean = test: Test Example 3: soil treatment, effect on crop; d: soybean; conditions: soil treatment, treatment dosage 315 g/ha
From the text: as §1, §2, §3, §4

chickweed = test: Test Example 3: weedkilling efficacy through soil treatment; N: chickweed; conditions: soil treatment, treatment dosage 315 g/ha
From the text: as §1, §2, §3, §4

oval-leafed pondweed [2] = test: Test Example 2: weedkilling efficacy, growth period weed treatment in the submerged state; C: oval-leafed pondweed; conditions: treatment dosage 252 g/ha
In short: (§6)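 Barnyard grass, bulrush and oval-leafed pondweed sown in alluvial soil under 4 cm flooding, greenhouse 25 to 30° C. At 1-2 leaf stage, water-diluted emulsion applied to the water surface at stated g/ha dosages; effects scored 3 weeks later.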

bulrush [3] = test: Test Example 2: weedkilling efficacy, growth period weed treatment in the submerged state; B: bulrush; conditions: treatment dosage 252 g/ha
In short: as §6

directly sown rice = test: Test Example 3: soil treatment, effect on crop; b: directly sown rice; conditions: soil treatment, treatment dosage 315 g/ha
From the text: as §1, §2, §3, §4

redroot pigweed = test: Test Example 3: weedkilling efficacy through soil treatment; L: redroot pigweed; conditions: soil treatment, treatment dosage 315 g/ha
From the text: as §1, §2, §3, §4

black-grass = test: Test Example 3: weedkilling efficacy through soil treatment; H: black-grass; conditions: soil treatment, treatment dosage 315 g/ha
From the text: as §1, §2, §3, §4

crabgrass = test: Test Example 3: weedkilling efficacy through soil treatment; D: crabgrass; conditions: soil treatment, treatment dosage 315 g/ha
From the text: as §1, §2, §3, §4

fig-leafed goosefoot = test: Test Example 3: weedkilling efficacy through soil treatment; M: fig-leafed goosefoot; conditions: soil treatment, treatment dosage 315 g/ha
From the text: as §1, §2, §3, §4

barnyard grass [4] = test: Test Example 2: weedkilling efficacy, growth period weed treatment in the submerged state; A: barnyard grass; conditions: treatment dosage 252 g/ha
In short: as §6

barnyard grass [5] = test: Test Example 1: weedkilling efficacy, preemergent weed treatment in the submerged state; A: barnyard grass; conditions: treatment dosage 252 g/ha
In short: as §5

wild oat = test: Test Example 3: weedkilling efficacy through soil treatment; G: wild oat; conditions: soil treatment, treatment dosage 315 g/ha
From the text: as §1, §2, §3, §4

Indian mallow = test: Test Example 3: weedkilling efficacy through soil treatment; K: Indian mallow; conditions: soil treatment, treatment dosage 315 g/ha
From the text: as §1, §2, §3, §4

bulrush [6] = test: Test Example 1: weedkilling efficacy, preemergent weed treatment in the submerged state; B: bulrush; conditions: treatment dosage 252 g/ha
In short: as §5

corn = test: Test Example 3: soil treatment, effect on crop; c: corn; conditions: soil treatment, treatment dosage 315 g/ha
From the text: as §1, §2, §3, §4

birds-eye speedwell = test: Test Example 3: weedkilling efficacy through soil treatment; p: birds-eye speedwell; conditions: soil treatment, treatment dosage 315 g/ha
From the text: as §1, §2, §3, §4

| Compound | E: green foxtail, weedkilling efficacy grade (green foxtail) | C: oval-leafed pondweed, weed kill grade (oval-leafed pondweed [1]) | f: beet, effect on crop grade (beet) | e: wheat, effect on crop grade (wheat) | a: transplanted rice, effect on crop grade (transplanted rice) | I: Italian ryegrass, weedkilling efficacy grade (Italian ryegrass) | d: soybean, effect on crop grade (soybean) | N: chickweed, weedkilling efficacy grade (chickweed) | C (oval-leafed pondweed) weedkilling efficacy grade (oval-leafed pondweed [2]) | B (bulrush) weedkilling efficacy grade (bulrush [3]) | b: directly sown rice, effect on crop grade (directly sown rice) | L: redroot pigweed, weedkilling efficacy grade (redroot pigweed) | H: black-grass, weedkilling efficacy grade (black-grass) | D: crabgrass, weedkilling efficacy grade (crabgrass) | M: fig-leafed goosefoot, weedkilling efficacy grade (fig-leafed goosefoot) | A (barnyard grass) weedkilling efficacy grade (barnyard grass [4]) | G: wild oat, weedkilling efficacy grade (wild oat) | K: Indian mallow, weedkilling efficacy grade (Indian mallow) | c: corn, effect on crop grade (corn) | P: birds-eye speedwell, weedkilling efficacy grade (birds-eye speedwell) | other results |
| --- | --- | --- | --- | --- | --- | --- | --- | --- | --- | --- | --- | --- | --- | --- | --- | --- | --- | --- | --- | --- | --- |
| CC(C)(C(=O)Nc1cccc(F)n1)N1COCN(c2ccccc2)C1=O [A-2-05] | 5 (weed kill ratio 90% or more, (practically complete withering)) | 5 (weed kill ratio 90% or more, (practically complete withering)) | 5 (weed kill ratio 90% or more, (practically complete withering)) | 4 (weed kill ratio 70% or more, less than 90%) | 3 (weed kill ratio 40% or more, less than 70%) | 5 (weed kill ratio 90% or more, (practically complete withering)) | 4 (weed kill ratio 70% or more, less than 90%) | 4 (weed kill ratio 70% or more, less than 90%) | 4 (weed kill ratio 70% or more, less than 90%) | 5 (weed kill ratio 90% or more, (practically complete withering)) | 5 (weed kill ratio 90% or more, (practically complete withering)) | 5 (weed kill ratio 90% or more, (practically complete withering)) | 5 (weed kill ratio 90% or more, (practically complete withering)) | 5 (weed kill ratio 90% or more, (practically complete withering)) | 4 (weed kill ratio 70% or more, less than 90%) | 4 (weed kill ratio 70% or more, less than 90%) | 5 (weed kill ratio 90% or more, (practically complete withering)) | 3 (weed kill ratio 40% or more, less than 70%) | 4 (weed kill ratio 70% or more, less than 90%) | 5 (weed kill ratio 90% or more, (practically complete withering)) | A: barnyard grass, weed kill grade (barnyard grass [5]): 5 (weed kill ratio 90% or more, (practically complete withering)); B: bulrush, weed kill grade (bulrush [6]): 5 (weed kill ratio 90% or more, (practically complete withering)) |
| Cc1csc(NC(=O)C(C)(C)N2COCN(c3ccccc3)C2=O)n1 [A-1-05] | 5 (weed kill ratio 90% or more, (practically complete withering)) | 5 (weed kill ratio 90% or more, (practically complete withering)) | 3 (weed kill ratio 40% or more, less than 70%) | 0 (weed kill ratio 5% or less (practically no effect)) | 0 (weed kill ratio 5% or less (practically no effect)) | 5 (weed kill ratio 90% or more, (practically complete withering)) | 0 (weed kill ratio 5% or less (practically no effect)) | 4 (weed kill ratio 70% or more, less than 90%) | 3 (weed kill ratio 40% or more, less than 70%) | 5 (weed kill ratio 90% or more, (practically complete withering)) | 5 (weed kill ratio 90% or more, (practically complete withering)) | 5 (weed kill ratio 90% or more, (practically complete withering)) | 5 (weed kill ratio 90% or more, (practically complete withering)) | 5 (weed kill ratio 90% or more, (practically complete withering)) | 3 (weed kill ratio 40% or more, less than 70%) | 3 (weed kill ratio 40% or more, less than 70%) | 4 (weed kill ratio 70% or more, less than 90%) | 4 (weed kill ratio 70% or more, less than 90%) | 1 (weed kill ratio 5% or more, less than 20%) | 5 (weed kill ratio 90% or more, (practically complete withering)) | A: barnyard grass, weed kill grade (barnyard grass [5]): 5 (weed kill ratio 90% or more, (practically complete withering)); B: bulrush, weed kill grade (bulrush [6]): 5 (weed kill ratio 90% or more, (practically complete withering)) |
| CC(C)(C(=O)Nc1cc(Cl)cc(Cl)n1)N1COCN(c2ccccc2)C1=O [A-2-17, N-(4,6-dichloropyridin-2-yl)-2-methyl-2-(4-oxo-5-phenyl-1,3,5-oxadiazinan-3-yl) propionamide] | 5 (weed kill ratio 90% or more, (practically complete withering)) | – | 5 (weed kill ratio 90% or more, (practically complete withering)) | 4 (weed kill ratio 70% or more, less than 90%) | – | 5 (weed kill ratio 90% or more, (practically complete withering)) | 5 (weed kill ratio 90% or more, (practically complete withering)) | 5 (weed kill ratio 90% or more, (practically complete withering)) | – | – | 5 (weed kill ratio 90% or more, (practically complete withering)) | 5 (weed kill ratio 90% or more, (practically complete withering)) | 5 (weed kill ratio 90% or more, (practically complete withering)) | 5 (weed kill ratio 90% or more, (practically complete withering)) | 5 (weed kill ratio 90% or more, (practically complete withering)) | – | 5 (weed kill ratio 90% or more, (practically complete withering)) | 5 (weed kill ratio 90% or more, (practically complete withering)) | 4 (weed kill ratio 70% or more, less than 90%) | 5 (weed kill ratio 90% or more, (practically complete withering)) | – |
